The record followed here is patent publication US12465609B2, “Methods of treating patients suffering from a disease condition or disorder that is associated with an increased glutamate level” (veriNOS operations GmbH, priority 2022, dated 2025).

Data set [1] can be described thus: Safety and adverse event analyses, NOSTRA III. The class given is in vivo. On the procedure:
Safety analyses was performed using standard descriptive methods.
The total number of treatment-emergent adverse events (TEAE) and the total number of patients with TEAEs, the total number of TEAEs related to the study drug (certain, probable, possible), the total number of patients with TEAEs related to the study drug, the total number of TEAEs and the total number of patients with serious TEAEs, the total number of patients with TEAEs leading to discontinuation of study treatment and the total number of patients with TEAEs leading to death were summarised by treatment arm.

For data set [2], the system named is patients with acute moderate and severe TBI. Put plainly: NOSTRA III phase III trial, clinical outcome (eGOS, therapy intensity level) in TBI patients. The class given is in vivo, human. To be noted: for proportion of low TIL levels (3-10 points): patients of 18-39 years; for eGOS median at 6 months: placebo 5. On the procedure: Based on the results of the earlier phase II study, the NOSTRA III (NO Synthase in TRAumatic Brain Injury) phase III trial was designed to detect clinically relevant differences in clinical outcome (Extended Glasgow Outcome Score at 6 months after injury) as primary endpoint. In addition, the extracellular intracerebral glutamate levels and lactate levels of these TBI patients were also determined in an exploratory approach to monitor the metabolic state of the patients.
Trials. 2020. A total of 224 evaluable patients with moderate and severe TBI were enrolled in 32 centres in Austria, France, Germany, Spain, and United Kingdom. The trial started on 24 Aug. 2016 with last-patient last-visit on 17 Jun. 2020.
Patients between 18 and 60 years of age with Glasgow Coma Score ≥3 requiring intracranial pressure (ICP) monitoring were enrolled. Other inclusion criteria were TBI within the last 18 hours but at least 6 hours after the injury, which were expected to survive more than 24 hours after admission.
The eGOS was determined by a face to face meeting by trained assessors.
The null-hypothesis of no shift across the 8 ordered categories of eGOS for the two treatment groups was tested after six months based on a proportional odds model stratified by age (18-39 years and 40-60 years). […] Treatment and age (18-39 years and 40-60 years) were included in the model. The proportional odds assumption was tested using a Chi-Square Score Test.
The main objective of the post hoc analyses was to estimate the effect size of VAS203 compared with placebo for the primary endpoint eGOS-I (eGOS-Interview) in the subgroups time to infusion ≤12 hours and >12 hours. Supportive analyses were conducted by age group (<40 years, ≥40 years) because age group was used as a stratification factor in the study. Comparability between treatment groups regarding demographics as well as severity and location of disease was investigated using similar methods as in the main CSR.
The proportions of patients per eGOS-I level at 3 months and at 6 months were calculated. For the change in eGOS-I over time, the proportion of patients with changes from 3 to 6 months were calculated by eGOS-I level, and in addition categorised as decreased (i.e. any decrease in eGOS-I level from 3 to 6 months), unchanged (i.e. no change in eGOS-I level from 3 to 6 months), and increased (i.e. any increase in eGOS-I level from 3 to 6 months).
Ordinal logistic regression was used for the analysis of eGOS-I at 3 months and at 6 months, including treatment group and age group (<40 years, ≥40 years) as factors in the model. Estimated odds ratios for the comparison of the VAS203 and placebo groups of >1 mean that eGOS-I was higher in the VAS203 group than in the placebo group across the 8 levels, whereas odds ratios of <1 mean that eGOS-I was lower in the VAS203 group than in the placebo group. Odds ratios together with their 95% CIs were used to estimate and assess the size of the treatment effect of VAS203 compared to placebo. Proportional […] were assumed as valid for all these analyses because ordinal logistic regression analysis is known to be robust against deviations from this assumption; also, the power of assumption checking would be low for small subgroups.
Based on the time-dependent activation of pathologic cascades during the early phase after TBI and the benefits observed with an infusion of VAS203 during the initial 12 hours after TBI in the Phase IIa trial [Stover], a post-hoc-analysis was performed to determine whether patients in whom VAS203 was infused ≤12 hours after TBI, show better clinical improvement compared to patients in whom infusion was started >12 hours after TBI.

Turning to `C[C@H](O)[C@H](O)C1CNc2nc(N)nc(N)c2N1` (mixture of isomers) [Ronopterin, 4-Amino-(6R,S)-5,6,7,8-tetrahydro-L-biopterin], the “number of renal AEs” value in data set [1] (Ronopterin:placebo 11:3) came to 11. The “tolerability of study treatment” value in data set [1] (no significant new safety findings) was “well-tolerated”. The “proportion of patients with ICP increased (AE)” value in data set [1] (placebo 11.7%) is recorded as 23.9%. Also, in data set [1] (placebo 13), the “number of patients with ICP increased (AE)” value was found to be 27 patients. Moreover, the “number of adverse events (AEs) and serious adverse events (SAEs) compared to the placebo groups” value in data set [1] (related AE/SAEs low and comparable) is listed as “slightly higher number”. Besides, the “proportion of patients with Good Recovery” value is reported as 30% in data set [2] (18-39 years, late infusion >12 hours, placebo 38%); 20% in data set [2] (40-60 years, late infusion >12 hours, placebo 19%); 45% in data set [2] (patients aged 18-39 years, early infusion ≤12 hours, placebo 32%); 27% in data set [2] (patients aged 40-60 years, early infusion, placebo 8%). For the same compound, the “proportion of low TIL levels (3-10 points)” value is 81% in data set [2] (second week after TBI, placebo 64%, p=0.0002) and 71% in data set [2] (placebo 62%, p=0.01). The “NNT for Good Recovery” value in data set [2] (time to infusion <12 hours) was 8. The “increase of proportion of patients with a Good Recovery at 6 months compared to the Placebo group” value in data set [2] (time to infusion <12 hours) was determined as 61%. Moreover, the “proportion of patients with Good Recovery (eGOS 7 and 8)” value in data set [2] (time to infusion <12 hours, placebo 23%, ns) worked out at 37%. Moreover, the “eGOS median at 6 months” value in data set [2] (time to infusion >12 hours) is on record as 5; in data set [2] (time to infusion ≤12 hours, not significant), 6. Besides, the “proportion of patients with Good Recovery at 6 months” value in data set [2] (time to infusion >12 hours, placebo 28%) was 25%. Further, the “overall eGOS-I rating at 6 months vs placebo (primary efficacy endpoint)” value in data set [2] (total dose 17 mg/kg infused for 48 hours, ordinal logistic regression) is listed as “No difference”.
